Laboratory results reported in ChEMBL document CHEMBL4507291 (2021).

What was measured:
[1] = molecular target: Atypical kinase COQ8B, mitochondrial (Homo sapiens) (UniProt Q96D53)
[2] = molecular target: 5'-AMP-activated protein kinase catalytic subunit alpha-1 (Homo sapiens) (UniProt Q13131)
[3] = molecular target: Tyrosine-protein kinase Blk (Homo sapiens) (UniProt P51451)
[4] = molecular target: Mitotic checkpoint serine/threonine-protein kinase BUB1 (Homo sapiens) (UniProt O43683)
[5] = molecular target: Casein kinase I isoform gamma-1 (Homo sapiens) (UniProt Q9HCP0)
[6] = molecular target: T1, Ephrin type-B receptor 3 (Homo sapiens) (UniProt P54753)
T1 sequence (whole entry): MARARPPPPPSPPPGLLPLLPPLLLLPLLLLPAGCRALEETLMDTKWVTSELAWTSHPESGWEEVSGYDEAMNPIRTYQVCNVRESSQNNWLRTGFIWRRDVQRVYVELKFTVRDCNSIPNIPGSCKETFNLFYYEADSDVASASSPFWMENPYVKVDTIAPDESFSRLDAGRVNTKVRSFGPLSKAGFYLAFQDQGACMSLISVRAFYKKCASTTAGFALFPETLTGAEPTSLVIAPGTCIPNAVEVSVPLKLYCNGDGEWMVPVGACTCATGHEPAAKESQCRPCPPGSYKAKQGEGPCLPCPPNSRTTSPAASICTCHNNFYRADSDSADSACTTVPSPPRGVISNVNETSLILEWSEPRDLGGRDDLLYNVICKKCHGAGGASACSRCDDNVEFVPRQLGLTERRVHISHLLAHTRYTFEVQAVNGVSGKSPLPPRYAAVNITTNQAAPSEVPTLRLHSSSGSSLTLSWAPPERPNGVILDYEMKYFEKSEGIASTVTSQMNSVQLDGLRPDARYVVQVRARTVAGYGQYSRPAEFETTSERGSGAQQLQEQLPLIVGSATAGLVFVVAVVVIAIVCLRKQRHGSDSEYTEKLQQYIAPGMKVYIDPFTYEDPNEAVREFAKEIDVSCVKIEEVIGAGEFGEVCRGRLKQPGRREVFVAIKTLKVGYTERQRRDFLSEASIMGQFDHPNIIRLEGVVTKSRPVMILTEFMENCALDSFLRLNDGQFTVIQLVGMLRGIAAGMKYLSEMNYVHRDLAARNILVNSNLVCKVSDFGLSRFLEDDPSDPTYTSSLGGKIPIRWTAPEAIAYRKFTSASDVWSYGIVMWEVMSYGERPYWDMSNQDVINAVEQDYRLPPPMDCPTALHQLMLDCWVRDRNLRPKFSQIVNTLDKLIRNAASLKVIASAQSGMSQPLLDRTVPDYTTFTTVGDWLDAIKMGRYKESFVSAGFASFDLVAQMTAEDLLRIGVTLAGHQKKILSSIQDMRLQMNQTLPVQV

[7] = molecular target: Receptor tyrosine-protein kinase erbB-2 (Homo sapiens) (UniProt P04626)
[8] = molecular target: Cyclin-G-associated kinase (Homo sapiens) (UniProt O14976)
[9] = molecular target: MAP kinase-activated protein kinase 2 (Homo sapiens) (UniProt P49137)
[10] = molecular target: Ribosomal protein S6 kinase alpha-4 (Homo sapiens) (UniProt O75676)
[11] = molecular target: T2, Serine/threonine-protein kinase TBK1 (Homo sapiens) (UniProt Q9UHD2)
T2 sequence (whole entry): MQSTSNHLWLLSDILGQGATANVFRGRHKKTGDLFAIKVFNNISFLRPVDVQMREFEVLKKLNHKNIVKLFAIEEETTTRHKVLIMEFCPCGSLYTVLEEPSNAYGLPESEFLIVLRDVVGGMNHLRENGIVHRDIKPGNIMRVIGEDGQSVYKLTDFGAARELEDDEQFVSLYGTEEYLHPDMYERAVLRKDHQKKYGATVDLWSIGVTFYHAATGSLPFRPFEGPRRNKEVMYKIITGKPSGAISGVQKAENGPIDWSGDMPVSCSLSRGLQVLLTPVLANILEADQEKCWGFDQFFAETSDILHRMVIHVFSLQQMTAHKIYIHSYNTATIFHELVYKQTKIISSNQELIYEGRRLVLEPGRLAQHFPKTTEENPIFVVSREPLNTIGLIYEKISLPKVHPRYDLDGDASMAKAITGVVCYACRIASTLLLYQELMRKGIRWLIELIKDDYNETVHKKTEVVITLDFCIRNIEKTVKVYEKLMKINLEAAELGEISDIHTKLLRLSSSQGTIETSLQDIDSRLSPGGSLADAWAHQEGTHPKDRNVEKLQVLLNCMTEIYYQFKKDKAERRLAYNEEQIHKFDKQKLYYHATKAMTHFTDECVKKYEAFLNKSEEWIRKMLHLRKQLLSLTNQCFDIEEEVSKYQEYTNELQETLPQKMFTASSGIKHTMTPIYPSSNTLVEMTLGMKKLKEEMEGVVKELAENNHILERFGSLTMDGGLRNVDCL

[12] = molecular target: 5-hydroxytryptamine receptor 5A (Homo sapiens) (UniProt P47898); conditions: Compound concentration 10.0 uM
[13] = molecular target: D(1B) dopamine receptor (Homo sapiens) (UniProt P21918); conditions: Compound concentration 10.0 uM
[14] = molecular target: Kappa-type opioid receptor (Homo sapiens) (UniProt P41145); conditions: Compound concentration 10.0 uM
[15] = molecular target: T3, Muscarinic acetylcholine receptor M1 (Homo sapiens) (UniProt P11229); conditions: Compound concentration 10.0 uM
T3 sequence (whole entry): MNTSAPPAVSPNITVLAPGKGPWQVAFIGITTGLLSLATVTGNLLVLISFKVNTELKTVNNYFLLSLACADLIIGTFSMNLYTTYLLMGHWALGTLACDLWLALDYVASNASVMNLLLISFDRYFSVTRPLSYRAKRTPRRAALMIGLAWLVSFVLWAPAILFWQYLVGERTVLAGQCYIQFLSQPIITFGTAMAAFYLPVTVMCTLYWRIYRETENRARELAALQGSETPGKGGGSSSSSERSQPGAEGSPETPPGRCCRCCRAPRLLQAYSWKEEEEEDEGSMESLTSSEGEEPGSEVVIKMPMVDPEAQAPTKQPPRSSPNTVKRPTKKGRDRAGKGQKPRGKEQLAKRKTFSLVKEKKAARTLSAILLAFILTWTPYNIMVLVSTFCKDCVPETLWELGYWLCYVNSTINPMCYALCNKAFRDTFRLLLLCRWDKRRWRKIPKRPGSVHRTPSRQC

[16] = species: Rattus norvegicus; conditions: Compound concentration 10.0 uM
[17] = Compound concentration 1000.0 nM
[18] = Compound concentration 100.0 nM

Chain of Cyclin-G-associated kinase (Homo sapiens) (O14976 whole entry): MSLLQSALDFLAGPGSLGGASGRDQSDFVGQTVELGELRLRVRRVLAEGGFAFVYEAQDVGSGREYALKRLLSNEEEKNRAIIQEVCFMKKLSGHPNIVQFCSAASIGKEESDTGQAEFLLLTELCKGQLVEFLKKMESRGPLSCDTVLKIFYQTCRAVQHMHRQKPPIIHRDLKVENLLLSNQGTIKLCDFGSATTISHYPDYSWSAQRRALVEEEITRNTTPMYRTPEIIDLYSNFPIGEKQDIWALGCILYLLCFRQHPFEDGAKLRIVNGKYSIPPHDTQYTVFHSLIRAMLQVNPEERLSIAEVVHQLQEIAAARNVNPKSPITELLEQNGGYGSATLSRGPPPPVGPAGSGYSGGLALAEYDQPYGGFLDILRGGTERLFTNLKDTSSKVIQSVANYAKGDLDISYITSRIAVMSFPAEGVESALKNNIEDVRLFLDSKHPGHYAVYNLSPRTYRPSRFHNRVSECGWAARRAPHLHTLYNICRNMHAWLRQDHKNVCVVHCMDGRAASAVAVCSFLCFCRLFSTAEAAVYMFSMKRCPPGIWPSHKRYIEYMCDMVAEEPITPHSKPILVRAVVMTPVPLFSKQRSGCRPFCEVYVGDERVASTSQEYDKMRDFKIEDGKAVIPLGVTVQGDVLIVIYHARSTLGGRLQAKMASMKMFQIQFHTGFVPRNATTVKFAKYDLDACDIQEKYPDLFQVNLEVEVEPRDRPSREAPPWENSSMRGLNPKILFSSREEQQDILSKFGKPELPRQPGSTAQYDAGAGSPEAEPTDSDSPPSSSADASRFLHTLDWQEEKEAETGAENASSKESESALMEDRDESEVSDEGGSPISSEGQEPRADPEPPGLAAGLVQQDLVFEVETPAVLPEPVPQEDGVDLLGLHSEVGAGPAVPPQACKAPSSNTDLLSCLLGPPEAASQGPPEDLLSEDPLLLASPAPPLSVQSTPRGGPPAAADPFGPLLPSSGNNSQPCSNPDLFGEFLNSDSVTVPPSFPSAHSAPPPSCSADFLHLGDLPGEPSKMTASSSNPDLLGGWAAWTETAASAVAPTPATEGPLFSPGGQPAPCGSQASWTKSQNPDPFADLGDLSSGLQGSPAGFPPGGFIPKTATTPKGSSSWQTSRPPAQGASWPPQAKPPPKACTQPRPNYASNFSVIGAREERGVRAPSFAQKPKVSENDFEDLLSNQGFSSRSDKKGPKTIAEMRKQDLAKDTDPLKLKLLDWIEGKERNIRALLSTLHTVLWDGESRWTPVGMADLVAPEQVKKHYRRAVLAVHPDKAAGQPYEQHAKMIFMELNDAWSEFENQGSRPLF
Chain of 5'-AMP-activated protein kinase catalytic subunit alpha-1 (Homo sapiens) (Q13131 whole entry, looked up): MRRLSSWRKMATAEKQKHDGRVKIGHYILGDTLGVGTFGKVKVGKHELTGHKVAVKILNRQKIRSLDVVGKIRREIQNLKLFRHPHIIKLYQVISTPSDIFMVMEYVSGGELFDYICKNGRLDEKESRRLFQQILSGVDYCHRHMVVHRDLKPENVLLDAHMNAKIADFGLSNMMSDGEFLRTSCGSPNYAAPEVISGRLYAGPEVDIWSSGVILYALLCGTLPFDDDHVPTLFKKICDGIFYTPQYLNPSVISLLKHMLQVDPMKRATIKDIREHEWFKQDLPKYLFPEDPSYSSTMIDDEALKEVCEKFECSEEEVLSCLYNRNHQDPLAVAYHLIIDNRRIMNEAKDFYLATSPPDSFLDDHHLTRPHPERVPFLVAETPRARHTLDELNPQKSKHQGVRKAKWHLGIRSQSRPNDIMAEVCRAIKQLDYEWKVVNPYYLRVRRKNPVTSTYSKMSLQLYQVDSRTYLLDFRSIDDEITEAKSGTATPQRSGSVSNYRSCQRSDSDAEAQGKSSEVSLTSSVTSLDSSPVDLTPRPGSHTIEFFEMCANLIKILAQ
Chain of MAP kinase-activated protein kinase 2 (Homo sapiens) (P49137 whole entry, looked up): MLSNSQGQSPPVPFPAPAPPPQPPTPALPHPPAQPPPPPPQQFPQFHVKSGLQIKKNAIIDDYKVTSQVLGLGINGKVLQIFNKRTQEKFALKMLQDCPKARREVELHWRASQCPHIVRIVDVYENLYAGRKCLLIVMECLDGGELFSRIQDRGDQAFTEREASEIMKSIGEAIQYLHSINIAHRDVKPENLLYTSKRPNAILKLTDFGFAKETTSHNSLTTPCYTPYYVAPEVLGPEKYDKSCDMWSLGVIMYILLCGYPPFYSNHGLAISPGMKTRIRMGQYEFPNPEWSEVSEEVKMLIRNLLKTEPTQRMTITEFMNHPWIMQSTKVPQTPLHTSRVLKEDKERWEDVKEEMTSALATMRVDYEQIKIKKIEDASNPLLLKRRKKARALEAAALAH
Chain of Receptor tyrosine-protein kinase erbB-2 (Homo sapiens) (P04626 whole entry): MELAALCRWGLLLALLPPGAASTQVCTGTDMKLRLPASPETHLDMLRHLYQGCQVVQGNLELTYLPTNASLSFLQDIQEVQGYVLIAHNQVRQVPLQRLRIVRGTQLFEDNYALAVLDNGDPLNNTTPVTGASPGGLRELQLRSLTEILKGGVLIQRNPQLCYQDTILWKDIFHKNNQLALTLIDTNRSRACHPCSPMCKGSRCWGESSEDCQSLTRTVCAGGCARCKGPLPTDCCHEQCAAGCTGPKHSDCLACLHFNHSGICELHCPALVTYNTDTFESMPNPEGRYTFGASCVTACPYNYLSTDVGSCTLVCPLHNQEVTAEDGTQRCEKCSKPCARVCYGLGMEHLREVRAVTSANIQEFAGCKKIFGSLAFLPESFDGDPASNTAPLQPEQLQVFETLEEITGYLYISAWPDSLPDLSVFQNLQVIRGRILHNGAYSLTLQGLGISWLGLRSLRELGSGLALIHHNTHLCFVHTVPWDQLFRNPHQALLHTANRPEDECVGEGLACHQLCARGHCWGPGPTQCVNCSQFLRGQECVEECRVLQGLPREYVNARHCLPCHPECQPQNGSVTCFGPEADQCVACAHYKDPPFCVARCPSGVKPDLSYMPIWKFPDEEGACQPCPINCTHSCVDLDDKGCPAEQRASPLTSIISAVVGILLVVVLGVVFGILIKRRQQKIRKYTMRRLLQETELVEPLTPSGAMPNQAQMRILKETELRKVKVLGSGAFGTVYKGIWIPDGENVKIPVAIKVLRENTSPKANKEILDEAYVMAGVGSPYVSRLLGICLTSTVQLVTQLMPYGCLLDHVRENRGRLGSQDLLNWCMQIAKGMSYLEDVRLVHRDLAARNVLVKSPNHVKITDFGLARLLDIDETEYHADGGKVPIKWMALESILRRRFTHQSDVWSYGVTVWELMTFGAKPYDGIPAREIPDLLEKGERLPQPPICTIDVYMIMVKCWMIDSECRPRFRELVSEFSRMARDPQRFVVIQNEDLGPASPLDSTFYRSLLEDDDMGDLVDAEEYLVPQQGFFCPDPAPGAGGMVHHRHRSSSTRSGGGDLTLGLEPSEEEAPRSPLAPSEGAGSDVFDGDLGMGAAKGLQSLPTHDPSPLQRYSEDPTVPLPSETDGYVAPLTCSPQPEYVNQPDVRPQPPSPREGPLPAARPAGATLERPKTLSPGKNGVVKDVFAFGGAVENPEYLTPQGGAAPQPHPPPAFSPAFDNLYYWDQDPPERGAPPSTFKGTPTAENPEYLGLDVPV
Chain of Casein kinase I isoform gamma-1 (Homo sapiens) (Q9HCP0 whole entry, looked up, canonical isoform): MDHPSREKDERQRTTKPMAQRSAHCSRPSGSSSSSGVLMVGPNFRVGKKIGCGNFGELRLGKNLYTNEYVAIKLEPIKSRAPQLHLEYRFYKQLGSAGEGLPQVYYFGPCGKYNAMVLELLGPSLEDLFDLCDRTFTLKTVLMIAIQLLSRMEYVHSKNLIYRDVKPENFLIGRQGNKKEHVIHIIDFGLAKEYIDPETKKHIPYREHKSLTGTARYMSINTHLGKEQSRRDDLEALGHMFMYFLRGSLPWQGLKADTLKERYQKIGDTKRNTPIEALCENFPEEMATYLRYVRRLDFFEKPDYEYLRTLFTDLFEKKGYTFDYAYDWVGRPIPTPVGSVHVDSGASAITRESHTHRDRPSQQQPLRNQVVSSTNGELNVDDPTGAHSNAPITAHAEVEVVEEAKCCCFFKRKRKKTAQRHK
Chain of Atypical kinase COQ8B, mitochondrial (Homo sapiens) (Q96D53 whole entry): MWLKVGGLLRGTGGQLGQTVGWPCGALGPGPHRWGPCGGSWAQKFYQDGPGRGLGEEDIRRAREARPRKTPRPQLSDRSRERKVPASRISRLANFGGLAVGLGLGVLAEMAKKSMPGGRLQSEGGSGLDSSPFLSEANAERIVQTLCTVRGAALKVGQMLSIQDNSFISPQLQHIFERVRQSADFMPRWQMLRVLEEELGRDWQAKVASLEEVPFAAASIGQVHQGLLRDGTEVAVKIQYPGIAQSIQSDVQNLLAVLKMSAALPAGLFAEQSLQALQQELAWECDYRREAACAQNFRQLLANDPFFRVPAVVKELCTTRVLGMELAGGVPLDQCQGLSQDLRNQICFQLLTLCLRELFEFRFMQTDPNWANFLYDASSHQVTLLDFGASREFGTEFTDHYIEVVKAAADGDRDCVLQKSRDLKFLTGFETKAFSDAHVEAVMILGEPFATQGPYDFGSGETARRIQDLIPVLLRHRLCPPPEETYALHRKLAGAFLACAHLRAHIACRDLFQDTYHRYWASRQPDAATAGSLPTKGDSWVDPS
Chain of Kappa-type opioid receptor (Homo sapiens) (P41145 whole entry): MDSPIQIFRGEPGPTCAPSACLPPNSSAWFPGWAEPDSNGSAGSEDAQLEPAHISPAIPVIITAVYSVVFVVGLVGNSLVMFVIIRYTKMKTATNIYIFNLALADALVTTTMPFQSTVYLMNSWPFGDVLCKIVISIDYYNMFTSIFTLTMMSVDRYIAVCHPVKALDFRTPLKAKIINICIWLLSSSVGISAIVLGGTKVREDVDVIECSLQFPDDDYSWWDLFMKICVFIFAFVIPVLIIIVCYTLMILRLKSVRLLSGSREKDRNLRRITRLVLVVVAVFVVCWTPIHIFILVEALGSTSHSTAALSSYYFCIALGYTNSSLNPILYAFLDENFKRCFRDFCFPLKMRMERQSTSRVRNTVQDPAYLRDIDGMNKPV

C[C@@H]1CN(c2cc(-c3nn(C)c4ccc(OC5(C)CC5)cc34)ncn2)C[C@H](C)O1 [MLi-2-NC]
inactive: residual activity [1, 17] 100% | residual activity [2, 17] 93% | residual activity [3, 17] 95% | residual activity [4, 17] 89% | residual activity [5, 17] 89% | residual activity [6, 17] 100% | residual activity [7, 17] 80% | residual activity [8, 17] 86% | residual activity [9, 17] 93% | residual activity [10, 17] 81% | residual activity [11, 17] 75% | inhibition [12] -6.76% | inhibition [13] 3.61% | inhibition [14] 13.1% | inhibition [15] -1.02% | inhibition [16] 46.1%

C[C@@H]1CN(c2cc(-c3n[nH]c4ccc(OC5(C)CC5)cc34)ncn2)C[C@H](C)O1 [MLi-2]
inactive: residual activity [1, 18] 72% | residual activity [2, 18] 86% | residual activity [3, 18] 83% | residual activity [4, 18] 84% | residual activity [5, 18] 100% | residual activity [6, 18] 98% | residual activity [7, 18] 77% | residual activity [8, 18] 86% | residual activity [9, 18] 96% | residual activity [10, 18] 75% | residual activity [11, 18] 68% | inhibition [12] -4.76% | inhibition [13] 16.1% | inhibition [14] -0.6% | inhibition [15] 3.04% | inhibition [16] 5.96%
